This note sets out measurements from ChEMBL document CHEMBL4196002, “Design, synthesis, mechanistic and histopathological studies of small-molecules of novel indole-2-carboxamides and pyrazino[1,2-a]indol-1(2H)-ones as potential anticancer agents effecting the reactive oxygen species production” (Eur J Med Chem, 2018).

Activity calls are given as the source filed them. The rule behind the calls is not given here.

The nature of data set [1]: Cytotoxicity against human MCF10A cells assessed as cell viability at 50 uM after 96 hrs by MTT assay relative to control. The data set is classed as cell-based, MCF-10A. The settings on record: read-out: Activity.
A short description of data set [2]: Inhibition of ROS generation in human PMN at 0.78 ug/ml after 50 mins by luminol-based chemiluminescence assay relative to control. The data set is classed as functional.
Data set [3] in a line: Inhibition of ROS generation in human PMN at 1.56 ug/ml after 50 mins by luminol-based chemiluminescence assay relative to control. The data set is classed as functional.
Data set [4] deals with PC-3. Put plainly: Antiproliferative activity human PC3 cells after 48 hrs by propidium iodide staining-based fluorescence assay. The format is functional, cell-based. As to conditions: PC-3, 48 h.
Data set [5] relates to A549. Put plainly: Antiproliferative activity human A549 cells after 48 hrs by propidium iodide staining-based fluorescence assay. The format is functional, cell-based. As to conditions: A549, 48 h.
The test system of data set [6] is MCF7. Put plainly: Antiproliferative activity human MCF7 cells after 48 hrs by propidium iodide staining-based fluorescence assay. The format is functional, cell-based. As to conditions: MCF7, 48 h.
The subject of data set [7] is MIA PaCa-2. Put plainly: Antiproliferative activity human MIAPaCa2 cells after 48 hrs by propidium iodide staining-based fluorescence assay. The format is functional, cell-based. As to conditions: MIA PaCa-2, 48 h.
In data set [8] the test system is HT-29. Put plainly: Antiproliferative activity human HT-29 cells after 48 hrs by propidium iodide staining-based fluorescence assay. The data set is classed as functional, cell-based. As to conditions: HT-29, 48 h.
Data set [9] has as its target Tubulin (Homo sapiens) (UniProt P68371+Q9H4B7+P0DPH7+P68366+Q13509+Q71U36+P04350+Q3ZCM7+P07437+P68363+Q9BQE3+Q6PEY2+Q13885+Q9BVA1+Q9BUF5). Put plainly: Inhibition of tubulin (unknown origin) polymerization assessed as tubulin assembly rate by fluorescence assay. The data set is classed as protein-complex assay.
Data set [10] deals with Epidermal growth factor receptor (Homo sapiens, UniProt P00533). Put plainly: Inhibition of His6-tagged EGFR (unknown origin) cytoplasmic domain expressed in baculovirus infected Sf9 insect cells after 10 mins followed by addition of ATP-MgCl2 and measured after 1 hr by time-resolved fluorometric analysis.
Epidermal growth factor receptor, sequence (P00533 whole entry, the tested form may be a part): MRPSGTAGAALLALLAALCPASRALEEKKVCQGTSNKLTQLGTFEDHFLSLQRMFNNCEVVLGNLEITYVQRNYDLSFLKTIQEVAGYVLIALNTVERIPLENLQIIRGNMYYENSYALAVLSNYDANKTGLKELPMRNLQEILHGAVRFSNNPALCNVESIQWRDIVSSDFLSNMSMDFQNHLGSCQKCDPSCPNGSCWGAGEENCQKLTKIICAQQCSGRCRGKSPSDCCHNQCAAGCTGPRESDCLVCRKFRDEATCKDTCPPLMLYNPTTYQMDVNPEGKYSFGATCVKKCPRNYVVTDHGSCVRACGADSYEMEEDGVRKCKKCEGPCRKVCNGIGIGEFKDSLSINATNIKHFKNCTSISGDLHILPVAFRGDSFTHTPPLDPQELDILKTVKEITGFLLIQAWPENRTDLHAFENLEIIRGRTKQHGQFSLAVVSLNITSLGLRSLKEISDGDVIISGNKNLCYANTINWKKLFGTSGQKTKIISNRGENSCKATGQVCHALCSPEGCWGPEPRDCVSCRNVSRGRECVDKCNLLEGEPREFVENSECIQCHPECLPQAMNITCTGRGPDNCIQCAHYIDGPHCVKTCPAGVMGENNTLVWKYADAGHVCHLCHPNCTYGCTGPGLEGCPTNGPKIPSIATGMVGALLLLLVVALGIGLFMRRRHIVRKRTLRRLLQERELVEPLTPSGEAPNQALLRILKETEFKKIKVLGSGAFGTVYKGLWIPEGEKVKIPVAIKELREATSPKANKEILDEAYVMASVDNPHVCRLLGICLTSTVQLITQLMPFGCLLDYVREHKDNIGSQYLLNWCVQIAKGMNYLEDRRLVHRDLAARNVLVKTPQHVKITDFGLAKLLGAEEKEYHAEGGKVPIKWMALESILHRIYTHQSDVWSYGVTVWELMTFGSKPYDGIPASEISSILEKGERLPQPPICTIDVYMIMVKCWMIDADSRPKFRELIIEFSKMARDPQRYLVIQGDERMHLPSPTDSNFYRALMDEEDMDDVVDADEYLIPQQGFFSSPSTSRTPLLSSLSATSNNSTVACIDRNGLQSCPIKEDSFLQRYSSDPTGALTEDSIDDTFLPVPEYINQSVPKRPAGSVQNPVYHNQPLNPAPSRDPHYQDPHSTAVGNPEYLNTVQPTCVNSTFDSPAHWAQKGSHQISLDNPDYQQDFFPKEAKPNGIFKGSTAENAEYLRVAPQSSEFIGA
Data set [11] concerns the target Serine/threonine-protein kinase B-raf (Mus musculus, UniProt P28028, V600E). Put plainly: Inhibition of mouse full-length GST-tagged BRAF V600E mutant using recombinant human full length N-terminal His-tagged MEK1 as substrate preincubated for 60 mins followed by substrate addition and measured after 25 mins by ELISA. Background: ELISA stands for enzyme-linked immunosorbent assay.

Data set [12] in a line: Inhibition of ROS generation in human PMN at 3.13 ug/ml after 50 mins by luminol-based chemiluminescence assay relative to control. The data set is classed as functional.
The nature of data set [13]: Inhibition of ROS generation in human PMN at 6.25 ug/ml after 50 mins by luminol-based chemiluminescence assay relative to control. The data set is classed as functional.
Data set [14] can be described thus: Inhibition of ROS generation in human PMN at 12.5 ug/ml after 50 mins by luminol-based chemiluminescence assay relative to control. The data set is classed as functional.
Data set [15] is described as follows: (§1) Inhibition of ROS generation in human PMN after 50 mins by luminol-based chemiluminescence assay. The format is functional.
The species entered for data set [16] is Homo sapiens. Described as §1. The data set is classed as functional.
Data set [17] can be described thus: Antioxidant activity assessed as DPPH radical scavenging activity at 100 uM after 30 mins dark incubation. The data set is classed as functional. (In general: DPPH is a stable violet radical that fades when it is reduced.)
Data set [18] in a line: Antioxidant activity assessed as DPPH radical scavenging activity at 50 uM after 30 mins dark incubation. The format is functional.
Data set [19] is described as follows: Antioxidant activity assessed as DPPH radical scavenging activity at 10 uM after 30 mins dark incubation. The data set is classed as functional.
The test system of data set [20] is Mus musculus. Put plainly: Inhibition of chlorpyrifos-induced testicular damage in albino mouse assessed as increase in spermatogenic cell layers at 20 mg/kg, qd administered via oral gavage followed by chlorpyrifos challenge at 30 mins post dose by haematoxylin and eosin staining-based light microscopic analysis. The data set is classed as functional, organism-based.

Data set [21] has as its system Mus musculus. Put plainly: Inhibition of chlorpyrifos-induced testicular damage in albino mouse assessed as appearance of well-organized spermatogenic layers at different stages of spermatogenesis at 20 mg/kg, qd administered via oral gavage followed by chlorpyrifos challenge at 30 mins post dose by haematoxylin and eosin staining-based light microscopic analysis. The format is functional, organism-based.

The test system of data set [22] is Mus musculus. Put plainly: Inhibition of chlorpyrifos-induced testicular damage in albino mouse assessed as appearance of normal sertoli cells at 20 mg/kg, qd administered via oral gavage followed by chlorpyrifos challenge at 30 mins post dose by haematoxylin and eosin staining-based light microscopic analysis. The format is functional, organism-based.
The test system of data set [23] is Mus musculus. Put plainly: Inhibition of chlorpyrifos-induced testicular damage in albino mouse assessed as appearance of spermatozoa tails in lumina at 20 mg/kg, qd administered via oral gavage followed by chlorpyrifos challenge at 30 mins post dose by haematoxylin and eosin staining-based light microscopic analysis. The format is functional, organism-based.

The subject of data set [24] is Mus musculus. Put plainly: Inhibition of chlorpyrifos-induced fibrosis in albino mouse testis assessed as thin fibrous capsule at 20 mg/kg, qd administered via oral gavage followed by chlorpyrifos challenge at 30 mins post dose by masson's trichrome staining-based light microscopic analysis. The format is functional, organism-based.
Data set [25] relates to Mus musculus. Put plainly: Inhibition of chlorpyrifos-induced fibrosis in albino mouse testis assessed as decrease in collagen in interstitium at 20 mg/kg, qd administered via oral gavage followed by chlorpyrifos challenge at 30 mins post dose by masson's trichrome staining-based light microscopic analysis. The data set is classed as functional, organism-based.
Data set [26] relates to Mus musculus. Put plainly: Inhibition of chlorpyrifos-induced iNOS epression in albino mouse testes at 20 mg/kg, qd administered via oral gavage followed by chlorpyrifos challenge at 30 mins post dose by immunohistochemical analysis. The data set is classed as functional, organism-based.
Data set [27] deals with Mus musculus. Put plainly: Inhibition of chlorpyrifos-induced caspase3 epression in albino mouse testes at 20 mg/kg, qd administered via oral gavage followed by chlorpyrifos challenge at 30 mins post dose by immunohistochemical analysis. The format is functional, organism-based.
Data set [28] relates to Mus musculus. Put plainly: Inhibition of chlorpyrifos-induced testicular damage in albino mouse assessed as absence of crowdedness of interstitial cells with relatively low exudate at 20 mg/kg, qd administered via oral gavage followed by chlorpyrifos challenge at 30 mins post dose by haematoxylin and eosin staining-based light microscopic analysis. The data set is classed as functional, organism-based.

For data set [29], the species on record is Mus musculus. As to conditions: 20 mg/kg.
Description: Inhibition of chlorpyrifos-induced testicular damage in albino mouse assessed as appearance of spermatozoa tails in narrow lumina at 20 mg/kg, qd administered via oral gavage followed by chlorpyrifos challenge at 30 mins post dose by haematoxylin and eosin staining-based light microscopic analysis
Data set [30] is filed under the species Mus musculus. As to conditions: 20 mg/kg. This is another data set of the same source.
Description: Inhibition of chlorpyrifos-induced testicular damage in albino mouse assessed as appearance of vesicular nuclei in spermatogenic cells at 20 mg/kg, qd administered via oral gavage followed by chlorpyrifos challenge at 30 mins post dose by haematoxylin and eosin staining-based light microscopic analysis
The species entered for data set [31] is Mus musculus. As to conditions: 20 mg/kg. The source holds these as a separate data set.
Description: Inhibition of chlorpyrifos-induced testicular damage in albino mouse assessed as appearance of cellular vaculations in germinal epithelium at 20 mg/kg, qd administered via oral gavage followed by chlorpyrifos challenge at 30 mins post dose by haematoxylin and eosin staining-based light microscopic analysis
For data set [32], the species on record is Mus musculus. The settings on record: 20 mg/kg. The source holds these as a separate data set.
Description: Inhibition of chlorpyrifos-induced testicular damage in albino mouse assessed as absence of sloughed cells at 20 mg/kg, qd administered via oral gavage followed by chlorpyrifos challenge at 30 mins post dose by haematoxylin and eosin staining-based light microscopic analysis
The species entered for data set [33] is Mus musculus. As to conditions: 20 mg/kg. The source holds these as a separate data set.
Description: Inhibition of chlorpyrifos-induced testicular damage in albino mouse assessed as appearance of separated semniferous tubules by narrow interstitium without exudate at 20 mg/kg, qd administered via oral gavage followed by chlorpyrifos challenge at 30 mins post dose by haematoxylin and eosin staining-based light microscopic analysis
Data set [34] relates to MCF7. Put plainly: Growth inhibition of human MCF7 cells after 48 hrs by SRB assay. The settings on record: MCF7, 48 h. The format is functional. For orientation: The SRB assay estimates cell density from bound dye.
For data set [35], the system named is MDA-MB-435. Put plainly: Growth inhibition of human MDA-MB-435 cells after 48 hrs by SRB assay. The data set is classed as functional. The settings on record: MDA-MB-435, 48 h.

Serine/threonine-protein kinase B-raf, sequence (P28028 whole entry, looked up, stated change not applied): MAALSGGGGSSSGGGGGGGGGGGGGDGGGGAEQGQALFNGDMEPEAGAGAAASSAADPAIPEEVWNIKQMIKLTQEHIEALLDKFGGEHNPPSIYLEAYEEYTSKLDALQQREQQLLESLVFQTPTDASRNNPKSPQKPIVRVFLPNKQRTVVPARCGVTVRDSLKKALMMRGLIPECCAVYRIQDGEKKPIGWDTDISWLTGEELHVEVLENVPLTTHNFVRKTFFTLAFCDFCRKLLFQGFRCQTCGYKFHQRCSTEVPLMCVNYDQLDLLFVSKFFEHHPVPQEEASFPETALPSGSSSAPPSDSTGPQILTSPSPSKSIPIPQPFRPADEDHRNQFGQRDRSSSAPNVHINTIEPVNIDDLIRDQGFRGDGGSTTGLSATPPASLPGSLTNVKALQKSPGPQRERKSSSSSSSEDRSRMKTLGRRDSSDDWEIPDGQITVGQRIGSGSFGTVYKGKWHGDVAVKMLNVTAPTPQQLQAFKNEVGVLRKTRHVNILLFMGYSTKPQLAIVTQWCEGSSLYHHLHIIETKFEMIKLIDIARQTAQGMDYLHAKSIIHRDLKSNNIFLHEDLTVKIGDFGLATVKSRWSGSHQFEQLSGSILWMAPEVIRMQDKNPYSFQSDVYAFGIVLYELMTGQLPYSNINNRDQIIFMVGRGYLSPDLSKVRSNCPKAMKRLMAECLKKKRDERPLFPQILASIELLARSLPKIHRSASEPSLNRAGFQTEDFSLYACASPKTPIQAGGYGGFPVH

With `O=c1[nH]c(Cc2ccccc2)cn2c1cc1cc(Cl)ccc12`, the viability at 96 h, 50 µM in data set [1] was 89%. Further, testing at 0.78 µg/mL in [2] gave an inhibition of 47%. Also, testing at 1.56 µg/mL in [3] gave an inhibition of 55%. For the same compound, the IC50 (as a rule, the concentration that gives 50% inhibition) was determined as 1300 nM in data set [4]; 1200 nM in [5]; 900 nM in [6]; 1800 nM in data set [7]; 900 nM in [8]; 2400 nM in [10]. The figures for the IC50 in data set [11] and in [15] were 1000 nM and 3360 nM, respectively. For the same compound, the Activity in [9] was determined as 930 a.u; in data set [17] it was 91.4%; in [18] it was 79.6%; in data set [19], 69.4%. In data set [12], at 3.13 µg/mL the inhibition was 64%. Also, in data set [13], the inhibition (as a rule, the drop in the measured response relative to a control, in per cent) at 6.25 µg/mL is 72%. The compound also showed an inhibition at 12.5 µg/mL in data set [14] of 81%. Further, in [16], the inhibition entry was “Dose-dependent effect”. In addition, the inhibition entry in data set [20], in [21], in data set [22], in data set [23], in data set [24] and in [25] was “Active” in each case. Further, the inhibition result in data set [26], in [27] and in data set [28] was “Active” each time.

Take `Cc1c2cc(Cl)ccc2n2cc(Cc3ccccc3)[nH]c(=O)c12`: the viability at 96 h, 50 µM in [1] was 91%. In data set [2], this compound registered an inhibition at 0.78 µg/mL of 55%. The same compound displayed an inhibition at 1.56 µg/mL in data set [3] of 60%. The IC50 was 900 nM in data set [4]; 800 nM in data set [5]; 100 nM in [6]; 300 nM in data set [7]; 600 nM in [8]; 100 nM in data set [11]. Also, the IC50 in data set [15] was found to be 1480 nM. In addition, the Activity stood at 650 a.u in data set [9], 97.7% in data set [17], 85.4% in [18] and 72.3% in [19]. In [12], this compound returned an inhibition at 3.13 µg/mL of 72%. This compound registered an inhibition at 6.25 µg/mL in data set [13] of 85%. This compound also gave an inhibition at 12.5 µg/mL in data set [14] of 91%. Further, in data set [16], the inhibition entry is “Dose-dependent effect”. For the same compound, the inhibition result in data set [20], in data set [24], in [25], in [26], in data set [27] and in data set [29] was “Active” each time. Further, the inhibition entry in [30], in [31], in data set [32] and in data set [33] was “Active” throughout.

With `Cc1ccc(S(=O)(=O)N2c3ccccc3CC2c2nc(Br)cnc2N)cc1` (stereo not drawn), the results for the GI50 in data set [34] and in data set [35] were 820 nM and 290 nM, respectively.
